Data: ChEMBL document CHEMBL3351491, “Synthesis and preliminary biological evaluation of potent and selective 2-(3-alkoxy-1-azetidinyl) quinolines as novel PDE10A inhibitors with improved solubility” (Bioorg Med Chem, 2014)

Tests used:
Format in all cases: ADME, organism-based
[1] = Clearance in Sprague-Dawley rat; conditions: in vivo
[2] = Volume of distribution at steady state in Sprague-Dawley rat at 2 mg/kg, iv; design: dose 2 mg/kg, route intravenous; conditions: in vivo, read-out: Vdss
[3] = Half life in Sprague-Dawley rat at 2 mg/kg, iv; design: dose 2 mg/kg, route intravenous; conditions: in vivo
[4] = AUC (0 to infinity) in Sprague-Dawley rat at 10 mg/kg, po; design: time infinity, dose 10 mg/kg, route oral; conditions: plasma
[5] = Oral bioavailability in Sprague-Dawley rat at 10 mg/kg; conditions: in vivo

| clearance [1] [L/h/kg] | Vd [2] [L/kg] | half-life [3] [h] | AUC(0-inf) [4] [µg·h/mL] | bioavailability [5] [%] | Structure (SMILES) |
| --- | --- | --- | --- | --- | --- |
| 0.96 | 1.55 | 3.64 | 0.0174 | 62 | CC(=O)N1CCC(c2nccnc2OC2CN(c3ccc4ccccc4n3)C2)CC1 |
| 3.68 | 4.81 | 6.42 | – | 18 | OCC1CCN(c2nccnc2OC2CN(c3ccc4ccccc4n3)C2)CC1 |
| 0.57 | 1.55 | 2.35 | 0.0279 | 57 | CC(=O)N1CCC(c2nc3ccccc3nc2OC2CN(c3ccc4ccccc4n3)C2)CC1 |
